Data set [1] concerns CaCo2 cells. In kind it is in vitro ADME. The conditions noted are these: 200 μg/ml cordycepin apical, pure solution. Here is the method: Methods: Transepithelial wells with a 1 μm pore size and 0.3 cm^2 surface area were preincubated with DMEM-F12 media with 10% FBS and 10 μg/ml penicillin/streptomycin at 37° C. in 5% CO2 for one hour. CaCo2 cells in the same media were seeded at a density of 50,000 cells. The cells were maintained under these conditions throughout the experiment. Media was changed every 2 to 3 days, and TEER values were monitored from day 10 onward. At day 18, cells with TEER values exceeding 200 ohm/cm^2 were incubated in PAB buffer for 20 minutes: 1 ml in basolateral and 0.5 ml in apical side. Samples of 200 μg/ml cordycepin, and 200 μg/ml cordycepin in a standardized cordyceps extract were prepared in PAB buffer, which was exchanged for the apical buffer. Fifty microlitre samples of both apical and basolateral compartments were acquired initially and at 1 hour intervals. The samples were immediately added to 450 μl of methanol and quantified on an Agilent 4910 LC-mass spectrometer. Cordycepin was measured by direct injection in SMS mode and integrated values were compared against standard curves prepared in the same manner as test samples.

The conditions of data set [2]: cordycepin after one oral dose of HAD-B1 formula; cited from earlier work.
The conditions of data set [3]: cited from earlier work.
Data set [4] concerns CaCo2. The conditions noted are these: human, Caco-2; cited from earlier work.
For data set [5] the following is noted: given as a pure compound; cited from earlier work.

Structures are written as SMILES.

In the case of `Nc1ncnc2c1ncn2[C@@H]1O[C@H](CO)C[C@H]1O` [cordycepin, 3′-deoxyadenosine], the “cordycepin measured on the basal side” value in data set [1] was “no detectable”. In data set [2], the half-life is 8.62 h and the “time to maximal concentration” value was 1.5 h. Also, the “experimental solubility in water” value in data set [3] was 1 mg/mL. The CaCo2 permeability in data set [4] is reported as 1.1*10^−7 cm/s. Besides, the oral bioavailability entry in data set [5] is reported as “extremely low”.
